From patent publication US20260159497A1, “SOLID FORMS OF A COMPLEMENT FACTOR B INHIBITOR” (Novartis Pharma AG, priority 2022, published 2026)
Where two headings read alike, the source gives them in different places.

How the values were obtained:
[1] = Solubility in water and biorelevant buffers at 25° C.; type: physicochemical; conditions: for XRPD of residual solid after solubility test / pH of solubility sample (pH) / solubility at 24 h: 25° C., 24 h; for solubility at 24 h: thermodynamic from solid, read-out: Solubility (mg/mL) S
Method: Purchase sodium taurocholate (NaTC) from supplier. Account for assay. Add amount corresponding to 3 mM to PBS V1. Stir until dissolved. Equilibrate 1 h at 25° C. or 37° C. before use. Dispose after 48 h.
Purchase FaSSIF-V2 from supplier (biorelevant.com). Amount added to PBS-V1 according to Table 1. Stir until dissolved. Equilibrate 1 h at 25° C. or 37° C. before use. Dispose after 48 h.
Purchase FeSSIF-V2 from supplier (biorelevant.com). Amount added to PBS-V1 according to Table 1. Stir until dissolved. Equilibrate 1 h at 25° C. or 37° C. before use. Dispose after 48 h.

Flow properties = type: physicochemical
Text: See U.S. Pat. No. 11,642,315.

[2] = Intrinsic dissolution rate; type: physicochemical
[3] = Solubility in Simulated Fluids at 37° C.; type: physicochemical; conditions: for solubility at 30 min / solubility at 24 h: 37 °C, thermodynamic from solid; for solubility at 30 min: read-out: Solubility (mg/mL) 30 min; for solubility at 24 h: read-out: Solubility (mg/mL) 24 h
Text: Solubility data of Form A (S)-4-(2,2-difluoro-7-((5-methoxy-7-methyl-1H-indol-4-yl)methyl)-7-azaspiro[3.5]nonan-6-yl)benzoic acid, Form B (S)-4-(2,2-difluoro-7-((5-methoxy-7-methyl-1H-indol-4-yl)methyl)-7-azaspiro[3.5]nonan-6-yl)benzoic acid p-toluene sulfonic acid salt, Form C (S)-4-(2,2-difluoro-7-((5-methoxy-7-methyl-1H-indol-4-yl)methyl)-7-azaspiro[3.5]nonan-6-yl)benzoic acid p-toluene sulfonic acid salt, and Form D (S)-4-(2,2-difluoro-7-((5-methoxy-7-methyl-1H-indol-4-yl)methyl)-7-azaspiro[3.5]nonan-6-yl)benzoic acid hydrochloride salt in Simulated Fluids at 37° C.

[4] = Stability of Forms A and B under stress conditions (temperature/humidity, capsules, light)
[5] = Compression stability (XRPD after compression); type: physicochemical; conditions: 4 tons of compression for 5 min
Text: Method: […] Afterwards, characterize the sample by XRPD to detect any change in the solid state.

[6] = Water content by Karl Fischer titration; type: physicochemical; conditions: ambient conditions; relative to total weight of the salt / free form
[7] = Grinding and wet granulation; type: physicochemical
Text: Method: Granulate was obtained in solid-state forms. […] Dry the wet-cake under vacuum or at atmospheric pressure. Evaluate solid form and degree of crystallinity by e.g. XRPD and/or DSC.

[8] = Dynamic vapor sorption (DVS) mass change; type: physicochemical; conditions: for Mass change by DVS, Desorption (%) / Mass change by DVS, Sorption (%): Table 5, 25 degree C., based on dry weight
Text: [table] The mass change by DVS isotherm (2 cycles 40-0-95-0-40% RH) are in the tables below. The mass change is based on the dry weight of each.

[9] = pH 2.0, 0.01 M HCl, 37° C., 100 rpm, 120 min
[10] = pH 6.5, phosphate buffer 50 mM (PBS-V1), 37° C., 100 rpm, 120 min

Structure (SMILES): COc1cc(C)c2[nH]ccc2c1CN1CCC2(C[C@H]1c1ccc(C(=O)O)cc1)CC(F)(F)C2.Cc1ccc(S(=O)(=O)O)cc1 [Form B, (S)-4-(2,2-difluoro-7-((5-methoxy-7-methyl-1H-indol-4-yl)methyl)-7-azaspiro[3.5]nonan-6-yl)benzoic acid p-toluene sulfonate]
- XRPD of residual solid after solubility test ([1]; FaSSGF, pH 1.6): No change
- pH of solubility sample (pH) ([1]; FaSSGF, pH 1.6): 1.77
- pH of solubility sample (pH) ([1]; PBS-V1 + 3 mM NaTC, pH 6.5): 6.42
- XRPD of residual solid after solubility test ([1]; PBS-V1 + 0.3 FeSSIF-V2, pH 6.5): Form A
- pH of solubility sample (pH) ([1]; PBS-V1 + 0.3 FeSSIF-V2, pH 6.5): 6.12
- XRPD of residual solid after solubility test ([1]; PBS-V1 + 2.0 FeSSIF-V2, pH 6.5): Form A
- pH of solubility sample (pH) ([1]; PBS-V1 + 2.0 FeSSIF-V2, pH 6.5): 6.19
- pH of solubility sample (pH) ([1]; PBS-V1 + FaSSIF-V2, pH 6.5): 6.35
- XRPD of residual solid after solubility test ([1]; PBS-V1 + FeSSIF-V2, pH 6.5): Form A
- pH of solubility sample (pH) ([1]; PBS-V1 + FeSSIF-V2, pH 6.5): 6.40
- solubility at 24 h ([1]; fassgf or other biorelevant, FaSSGF, pH 1.6): 0.49 mg/mL
- solubility at 24 h ([1]; fassgf or other biorelevant, PBS-V1 + 3 mM NaTC, pH 6.5): > 2 mg/mL
- solubility at 24 h ([1]; fassgf or other biorelevant, PBS-V1 + 0.3 FeSSIF-V2, pH 6.5): 0.1 mg/mL
- solubility at 24 h ([1]; fassgf or other biorelevant, PBS-V1 + 2.0 FeSSIF-V2, pH 6.5): 0.31 mg/mL
- solubility at 24 h ([1]; PBS-V1 + FaSSIF-V2, pH 6.5): > 2 mg/mL
- solubility at 24 h ([1]; PBS-V1 + FeSSIF-V2, pH 6.5): 0.2 mg/mL
- solubility at 24 h ([1]; water): 0.39 mg/mL
- solubility at 24 h compared with Form A ([1]; water and biorelevant buffers at 25° C., all media): significantly increased solubility
- pH of solubility sample (pH) ([1]; water): 3.89
- bulk density (Flow properties): good bulk density
- flowability (Flow properties): good flowability
- intrinsic dissolution rate ([2]; PBS-V1 (pH 6.5)): 0.18 mg/min/cm^2
- intrinsic dissolution rate ([2]; pH 2.0, 0.01 M HCl): 0.015 mg/min/cm^2
- form change after intrinsic dissolution [2, 9]: (No form change)
- intrinsic dissolution rate [2, 9]: 0.015 mg · min^−1 · cm^−2
- form change after intrinsic dissolution [2, 10]: (No form change
- intrinsic dissolution rate [2, 10]: 0.18 mg · min^−1 · cm^−2
- solubility at 30 min ([3]; fassif, FaSSIF, 30 min): > 2 mg/mL
- solubility at 30 min ([3]; fessif, FeSSIF, 30 min): > 2 mg/mL
- solubility at 24 h ([3]; fessif, FeSSIF, 24 h): > 2 mg/mL
- solubility at 30 min ([3]; pH 7, water, Water, initial pH 7.00, 30 min): 0.48 mg/mL
- solubility at 24 h ([3]; pH 7, water, Water, initial pH 7.00, 24 h): 0.56 mg/mL
- pH at 24 h ([3]; FaSSGF): 1.5
- Solubility (mg/mL) 30 min ([3]; FaSSGF, 30 min): 0.40 mg/mL
- Solubility (mg/mL) 24 h ([3]; FaSSGF, 24 h): 0.54 mg/mL
- pH at 24 h ([3]; FaSSIF): 6.13
- Solubility (mg/mL) 24 h ([3]; FaSSIF, 24 h): 0.53 (salt mg/mL
- pH at 24 h ([3]; FeSSIF): 4.87
- pH at 24 h ([3]; Water, initial pH 7.00): 3.60
- stability in HPMC and HGC capsules ([4]; 50° C. with 11% and 75% RH for 2 weeks): chemically and physically stable
- degradation under light stress ([4]; 1200 kLux light stress): about 0.2%
- discoloration under light stress ([4]; 1200 kLux light stress): slight discoloration
- form change by XRPD after humidity exposure ([4]; exposed to 80% or 92% RH for 24 hrs): no change
- chemical stability in bulk state ([4]; stored at 50° C. with 11% RH or 75% RH for 1 week): chemically stable
- degradation in bulk state ([4]; stored at 80° C. with 75% RH): about 0.1%
- discoloration in bulk state ([4]; stored at 80° C. with 75% RH): slight discoloration
- chemical stability in bulk state ([4]; stored at 80° C./11% RH for 1 week): chemically stable
- polymorphic form in the stress conditions ([4]; temperature/humidity and light stress conditions): no change
- form change in XRPD after compression [5]: no form change
- water content by Karl Fischer titration [6]: 2.3 % w/w
- crystallinity from XRPD pattern after grinding ([7]; after grinding): crystallinity decrease
- form change after grinding and wet granulation ([7]; dry grinding (2 min and 5 min) and wet granulation (water and ethanol)): did not lead to any form change
- water sorption and desorption behavior [8]: reversible water sorption and desorption behavior with no hysteresis
- maximum water uptake in DVS ([8]; 95% RH at 25° C.): 2.67%
- moisture absorbed by DVS (absorbs up to) ([8]; 95% RH at 25° C.): up to 2.7%
- Mass change by DVS, Desorption (%) ([8]; 0% RH): 0.00%
- Mass change by DVS, Sorption (%) ([8]; 0% RH): 0.00%
- Mass change by DVS, Desorption (%) ([8]; 10% RH): 1.11%
- Mass change by DVS, Sorption (%) ([8]; 10% RH): 1.08%
- Mass change by DVS, Desorption (%) ([8]; 20% RH): 1.66%
- Mass change by DVS, Sorption (%) ([8]; 20% RH): 1.64%
- Mass change by DVS, Desorption (%) ([8]; 30% RH): 1.93%
- Mass change by DVS, Sorption (%) ([8]; 30% RH): 1.92%
- Mass change by DVS, Desorption (%) ([8]; 40% RH): 2.10%
- Mass change by DVS, Sorption (%) ([8]; 40% RH): 2.09%
- Mass change by DVS, Desorption (%) ([8]; 50% RH): 2.22%
- Mass change by DVS, Sorption (%) ([8]; 50% RH): 2.21%
- Mass change by DVS, Desorption (%) ([8]; 60% RH): 2.32%
- Mass change by DVS, Sorption (%) ([8]; 60% RH): 2.31%
- Mass change by DVS, Desorption (%) ([8]; 70% RH): 2.39%
